Test results as given in patent US11970513B2, “Advanced glycation end product analogues” (Phytoquest Limited, priority 2012, dated 2024).
Where two headings read alike, the source gives them in different places.

What was measured:
α-D-mannosidase = molecular target: T1, α-D-mannosidase (Canavalia ensiformis, UniProt C0HJB3); experiment: Glycosidase assay, α-D-mannosidase (jack bean); format: biochemical, Jack bean (Canavalia ensiformis); conditions: read-out: percentage inhibition
T1 construct: purchased Sigma
T1 sequence (C0HJB3 1-981): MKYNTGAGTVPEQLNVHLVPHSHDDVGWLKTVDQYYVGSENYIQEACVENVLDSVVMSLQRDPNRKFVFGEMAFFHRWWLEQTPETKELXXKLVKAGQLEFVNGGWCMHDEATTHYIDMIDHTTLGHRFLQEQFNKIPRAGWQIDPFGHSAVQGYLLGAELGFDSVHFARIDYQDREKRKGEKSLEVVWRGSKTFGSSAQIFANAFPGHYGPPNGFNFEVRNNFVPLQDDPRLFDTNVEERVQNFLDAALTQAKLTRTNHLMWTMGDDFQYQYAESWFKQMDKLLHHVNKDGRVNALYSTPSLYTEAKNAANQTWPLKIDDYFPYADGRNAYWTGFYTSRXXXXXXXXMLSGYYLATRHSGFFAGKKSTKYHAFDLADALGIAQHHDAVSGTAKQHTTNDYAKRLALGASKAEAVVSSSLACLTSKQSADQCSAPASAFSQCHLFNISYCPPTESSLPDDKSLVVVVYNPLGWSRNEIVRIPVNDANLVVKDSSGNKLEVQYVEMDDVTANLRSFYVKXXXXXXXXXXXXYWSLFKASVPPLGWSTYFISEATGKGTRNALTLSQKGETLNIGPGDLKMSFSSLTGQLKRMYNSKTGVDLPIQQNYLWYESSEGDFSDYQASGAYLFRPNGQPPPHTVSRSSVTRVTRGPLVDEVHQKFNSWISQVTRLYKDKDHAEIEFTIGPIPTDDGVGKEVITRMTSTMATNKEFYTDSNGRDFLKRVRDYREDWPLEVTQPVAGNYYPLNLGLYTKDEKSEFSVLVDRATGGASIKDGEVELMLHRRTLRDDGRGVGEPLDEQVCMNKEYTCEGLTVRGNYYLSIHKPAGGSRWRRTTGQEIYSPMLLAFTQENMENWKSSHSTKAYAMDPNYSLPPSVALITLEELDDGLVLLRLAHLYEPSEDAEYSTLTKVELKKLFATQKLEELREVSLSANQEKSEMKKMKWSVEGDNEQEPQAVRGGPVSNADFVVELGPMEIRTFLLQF
Experimental: (§1) All enzymes and para-nitrophenyl substrates were purchased from Sigma, with the exception of beta-mannosidase which came from Megazyme. Enzymes were assayed at 27° C. in 0.1M citric acid/0.2M disodium hydrogen phosphate buffers at the optimum pH for the enzyme. The incubation mixture consisted of 10 μl enzyme solution, 10 μl of 1 mg/ml aqueous solution of sample and 50 μl of the appropriate 5 mM para-nitrophenyl substrate made up in buffer at the optimum pH for the enzyme. The reactions were stopped by addition of 70 μl 0.4M glycine (pH 10.4) during the exponential phase of the reaction, which had been determined at the beginning using uninhibited assays in which water replaced inhibitor. Final absorbances were read at 405 nm using a Versamax microplate reader (Molecular Devices). Assays were carried out in triplicate, and the values given are means of the three replicates per assay. The method was carried out as described in Watson et al. (1997) Phytochemistry 46 (2): 255-259.

β-D-mannosidase = experiment: Glycosidase assay, β-D-mannosidase (Cellullomonas fimi); format: biochemical; conditions: 0.2 mM, negative value = stabilisation/promotion
Experimental: as §1

β-glucuronidase [1] = molecular target: T2, β-glucuronidase (Escherichia coli, UniProt P05804); experiment: Glycosidase assay, β-glucuronidase (E. coli); format: biochemical; conditions: 0.2 mM, negative value = stabilisation/promotion, read-out: percentage inhibition
T2 construct: purchased Sigma
T2 sequence (P05804 whole entry): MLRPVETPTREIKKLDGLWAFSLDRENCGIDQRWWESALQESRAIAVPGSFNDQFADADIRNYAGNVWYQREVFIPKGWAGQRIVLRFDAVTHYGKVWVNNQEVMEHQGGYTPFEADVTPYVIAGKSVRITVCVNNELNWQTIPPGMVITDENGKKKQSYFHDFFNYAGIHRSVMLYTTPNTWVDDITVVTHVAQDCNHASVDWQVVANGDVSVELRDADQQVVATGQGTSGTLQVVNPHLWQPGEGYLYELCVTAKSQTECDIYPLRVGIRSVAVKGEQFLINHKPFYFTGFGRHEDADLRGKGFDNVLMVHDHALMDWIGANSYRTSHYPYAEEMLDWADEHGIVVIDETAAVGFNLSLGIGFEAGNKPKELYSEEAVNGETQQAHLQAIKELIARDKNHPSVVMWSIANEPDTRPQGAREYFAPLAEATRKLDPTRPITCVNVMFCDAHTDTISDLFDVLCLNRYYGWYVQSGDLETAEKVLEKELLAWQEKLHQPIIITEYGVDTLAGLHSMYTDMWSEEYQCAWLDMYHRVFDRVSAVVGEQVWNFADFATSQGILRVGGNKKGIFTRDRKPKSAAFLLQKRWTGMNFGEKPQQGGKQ
Experimental: as §1

α-D-glucosidase [2] = molecular target: T3, α-D-glucosidase (Oryza sativa subsp. japonica, UniProt Q653V7); experiment: Glycosidase assay, α-D-glucosidase (rice); format: biochemical; conditions: 0.2 mM, Rice (Oryza saliva), negative value = stabilisation/promotion, read-out: percentage inhibition
T3 construct: purchased Sigma
T3 sequence (Q653V7 34-885): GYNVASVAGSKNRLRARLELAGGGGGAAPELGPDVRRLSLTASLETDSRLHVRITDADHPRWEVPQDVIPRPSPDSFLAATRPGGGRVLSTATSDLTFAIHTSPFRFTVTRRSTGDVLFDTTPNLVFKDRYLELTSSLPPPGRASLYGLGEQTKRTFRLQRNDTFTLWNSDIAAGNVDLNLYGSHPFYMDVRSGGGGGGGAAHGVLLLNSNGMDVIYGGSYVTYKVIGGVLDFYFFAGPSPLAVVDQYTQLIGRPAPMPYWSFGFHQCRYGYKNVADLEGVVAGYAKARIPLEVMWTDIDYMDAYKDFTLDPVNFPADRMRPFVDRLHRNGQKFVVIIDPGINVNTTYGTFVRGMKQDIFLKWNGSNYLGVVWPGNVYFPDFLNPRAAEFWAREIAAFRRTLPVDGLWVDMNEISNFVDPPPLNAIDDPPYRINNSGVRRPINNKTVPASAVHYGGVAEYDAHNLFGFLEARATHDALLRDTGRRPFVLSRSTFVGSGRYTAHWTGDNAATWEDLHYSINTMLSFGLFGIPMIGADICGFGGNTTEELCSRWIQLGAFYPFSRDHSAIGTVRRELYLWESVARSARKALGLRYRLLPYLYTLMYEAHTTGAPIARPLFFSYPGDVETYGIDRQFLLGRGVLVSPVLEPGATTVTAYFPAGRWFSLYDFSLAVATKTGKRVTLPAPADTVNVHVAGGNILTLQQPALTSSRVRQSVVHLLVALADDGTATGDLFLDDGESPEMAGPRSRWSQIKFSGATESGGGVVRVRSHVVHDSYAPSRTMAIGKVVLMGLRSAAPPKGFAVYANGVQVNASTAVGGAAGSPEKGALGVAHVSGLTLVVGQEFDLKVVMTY
Experimental: as §1

α-L-fucosidase = molecular target: T4, α-L-fucosidase (Bos taurus, UniProt Q2KIM0); experiment: Glycosidase assay, α-L-fucosidase (bovine kidney); format: biochemical; conditions: 0.2 mM, negative value = stabilisation/promotion, read-out: percentage inhibition
T4 construct: purchased Sigma
T4 sequence (Q2KIM0 23-468): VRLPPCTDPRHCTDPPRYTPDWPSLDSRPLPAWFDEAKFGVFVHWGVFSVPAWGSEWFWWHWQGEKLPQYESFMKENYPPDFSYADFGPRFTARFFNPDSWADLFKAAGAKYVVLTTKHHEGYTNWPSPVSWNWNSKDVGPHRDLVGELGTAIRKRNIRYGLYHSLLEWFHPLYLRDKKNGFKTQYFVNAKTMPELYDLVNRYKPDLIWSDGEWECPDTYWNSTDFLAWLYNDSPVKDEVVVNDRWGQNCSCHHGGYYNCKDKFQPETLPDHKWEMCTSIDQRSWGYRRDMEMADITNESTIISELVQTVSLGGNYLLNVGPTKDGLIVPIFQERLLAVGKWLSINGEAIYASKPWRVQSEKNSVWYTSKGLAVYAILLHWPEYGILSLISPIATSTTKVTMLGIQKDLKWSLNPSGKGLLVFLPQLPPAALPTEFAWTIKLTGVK
Experimental: as §1

β-D-glucosidase = experiment: Glycosidase assay, β-D-glucosidase (almond); format: biochemical; conditions: 0.2 mM, Almond (Prunus sp.), negative value = stabilisation/promotion
Experimental: as §1

[3] = system: N-acetyl-β-D-glucosaminidase; experiment: Glycosidase assay, N-acetyl-β-D-glucosaminidase (jack bean); format: biochemical; conditions: 0.2 mM, negative value = stabilisation/promotion
Experimental: as §1

glycogen phosphorylase b = molecular target: T5, glycogen phosphorylase b (Oryctolagus cuniculus, UniProt P00489); experiment: Glycogen phosphorylase (GPb) activity; format: biochemical
T5 construct: purchased Sigma-Aldrich Fine Chemicals (St. Louis, Mo, USA)
T5 sequence (P00489 1-843): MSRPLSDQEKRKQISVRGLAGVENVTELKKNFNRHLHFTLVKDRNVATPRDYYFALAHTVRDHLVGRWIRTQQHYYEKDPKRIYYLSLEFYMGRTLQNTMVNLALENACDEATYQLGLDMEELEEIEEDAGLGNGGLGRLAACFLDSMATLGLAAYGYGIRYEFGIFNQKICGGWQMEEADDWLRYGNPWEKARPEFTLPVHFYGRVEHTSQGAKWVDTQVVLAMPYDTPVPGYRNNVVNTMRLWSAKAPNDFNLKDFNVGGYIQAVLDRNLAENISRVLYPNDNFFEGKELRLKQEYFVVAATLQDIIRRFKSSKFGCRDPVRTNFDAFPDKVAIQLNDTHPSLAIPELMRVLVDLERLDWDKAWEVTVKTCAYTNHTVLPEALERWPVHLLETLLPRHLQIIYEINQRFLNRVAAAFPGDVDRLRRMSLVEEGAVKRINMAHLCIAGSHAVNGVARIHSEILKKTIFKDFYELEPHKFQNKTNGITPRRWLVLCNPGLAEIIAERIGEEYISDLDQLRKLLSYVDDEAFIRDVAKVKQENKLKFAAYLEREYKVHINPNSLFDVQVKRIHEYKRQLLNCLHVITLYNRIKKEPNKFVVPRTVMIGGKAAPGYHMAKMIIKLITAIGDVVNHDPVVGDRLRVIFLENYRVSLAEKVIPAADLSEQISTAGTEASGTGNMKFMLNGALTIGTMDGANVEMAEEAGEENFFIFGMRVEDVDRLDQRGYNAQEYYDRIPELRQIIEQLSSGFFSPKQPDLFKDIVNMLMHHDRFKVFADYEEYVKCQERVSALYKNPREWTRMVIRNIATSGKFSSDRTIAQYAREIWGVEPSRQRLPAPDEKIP
Experimental: N2-beta-D-Fructopyranos-1-yl-Arginine and 1-Deoxy-1-(N-γ-aminobutyric acid)fructose were tested on glycogen phosphorylase and found to give weak inhibition (14.2 and 5.5% respectively at 400 μM.
Materials. Phosphoglucomutase, glucose-6-phosphate dehydrogenase, glucose-1,6-bisphosphate, glycogen phosphorylase b, α-D-glucose 1-phosphate dipotassium salt hydrate were purchased from Sigma-Aldrich Fine Chemicals (St. Louis, Mo, USA). Glycogen and caffeine were purchased from Nacalai Tesque (Kyoto, Japan). Other chemicals were from Wako Pure Chemical industries (Osaka, Japan).
Measurement of GPb activity. GPb activity was measured in the direction of glycogenolysis using 2 mg/mL glycogen as the substrate in 45 mM phosphate buffer at pH 6.8, containing 0.1 mM EDTA. […] The rate of enzyme-catalysed reaction in the medium can be followed as the increase in absorbance at 340 nm and 25° C. due to the formation of NADPH. GPb activity was also measured in the direction of glycogen synthesis using 25 mM glucose-1-P as substrate in a 250 mM Tris-malate buffer (pH 6.8), containing 5 mg/mL glycogen, 1 mM AMP, 15 mM cysteine, and glycogen phosphorylase b. […] Pi was measured by the Fiske-Subbarow method. The rate of enzyme-catalysed reaction in the medium was followed as the Increase in absorbance at 660 nm.

[4] = system: N-acetyl-β-D-glucosaminidase; experiment: Glycosidase assay, N-acetyl-β-D-glucosaminidase (bovine kidney); format: biochemical; conditions: for percentage inhibition: 0.2 mM, N-acetyl-β-D-glucosaminidase, Bovine kidney, negative value = stabilisation/promotion; for IC50: bovine hexosaminidase, read-out: IC50 against the bovine hexosaminidase
Experimental: as §1

α-D-glucosidase [5] = experiment: Glycosidase assay, α-D-glucosidase (Bacillus sterothermophilus); format: biochemical; conditions: 0.2 mM, negative value = stabilisation/promotion
Experimental: as §1

β-glucuronidase [6] = molecular target: T6, β-glucuronidase (Bos taurus, UniProt A3KMY8); experiment: Glycosidase assay, β-glucuronidase (bovine liver); format: biochemical; conditions: for inhibition at 200 µM: read-out: percentage inhibition
T6 sequence (A3KMY8 1-652): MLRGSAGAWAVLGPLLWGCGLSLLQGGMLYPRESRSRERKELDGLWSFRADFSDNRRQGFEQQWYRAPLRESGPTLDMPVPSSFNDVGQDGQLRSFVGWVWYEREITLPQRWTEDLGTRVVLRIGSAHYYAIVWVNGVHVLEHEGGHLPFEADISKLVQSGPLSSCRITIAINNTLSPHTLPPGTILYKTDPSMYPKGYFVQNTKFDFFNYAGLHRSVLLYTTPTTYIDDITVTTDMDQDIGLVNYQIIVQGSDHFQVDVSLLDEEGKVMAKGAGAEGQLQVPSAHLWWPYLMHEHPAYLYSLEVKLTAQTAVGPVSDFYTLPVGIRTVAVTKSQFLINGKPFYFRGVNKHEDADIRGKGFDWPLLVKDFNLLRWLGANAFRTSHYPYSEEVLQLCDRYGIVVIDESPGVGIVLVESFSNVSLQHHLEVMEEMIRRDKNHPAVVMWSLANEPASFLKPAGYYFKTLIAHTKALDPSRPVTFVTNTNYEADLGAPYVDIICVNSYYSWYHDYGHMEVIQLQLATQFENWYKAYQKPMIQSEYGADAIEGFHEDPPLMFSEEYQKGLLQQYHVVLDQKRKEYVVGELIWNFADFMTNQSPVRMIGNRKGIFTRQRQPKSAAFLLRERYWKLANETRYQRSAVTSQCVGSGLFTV
Experimental: as §1

[7] = molecular target: T7, N-acetyl-β-D-hexosaminidase (Aspergillus oryzae, UniProt Q8J2T0); experiment: Glycosidase assay, N-acetyl-β-D-hexosaminidase (Aspergillus oryzae); format: biochemical; conditions: 0.2 mM, negative value = stabilisation/promotion, read-out: percentage inhibition
T7 construct: purchased Sigma
T7 sequence (Q8J2T0 97-600): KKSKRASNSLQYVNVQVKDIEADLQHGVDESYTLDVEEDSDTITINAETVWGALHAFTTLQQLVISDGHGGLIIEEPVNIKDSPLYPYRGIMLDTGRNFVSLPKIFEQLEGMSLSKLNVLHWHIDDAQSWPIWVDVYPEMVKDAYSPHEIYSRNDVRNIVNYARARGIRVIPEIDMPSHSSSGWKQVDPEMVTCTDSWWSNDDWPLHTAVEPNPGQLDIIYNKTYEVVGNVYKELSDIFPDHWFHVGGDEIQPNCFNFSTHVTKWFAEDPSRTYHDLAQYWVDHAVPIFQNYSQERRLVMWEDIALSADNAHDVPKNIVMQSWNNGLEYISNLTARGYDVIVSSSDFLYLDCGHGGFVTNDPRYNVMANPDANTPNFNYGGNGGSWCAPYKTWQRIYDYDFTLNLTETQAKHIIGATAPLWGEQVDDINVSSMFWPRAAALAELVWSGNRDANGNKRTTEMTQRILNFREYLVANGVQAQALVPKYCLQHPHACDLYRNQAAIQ
Experimental: as §1

β-D-galactosidase = experiment: Glycosidase assay, β-D-galactosidase (bovine liver); format: biochemical; conditions: 0.2 mM, negative value = stabilisation/promotion
Experimental: as §1

Amyloglucosidase = molecular target: T8, Amyloglucosidase (Aspergillus niger, UniProt P69328); experiment: Glycosidase assay, amyloglucosidase (Aspergillus niger); format: biochemical; conditions: 0.2 mM, negative value = stabilisation/promotion, read-out: percentage inhibition
T8 construct: purchased Sigma
T8 sequence (P69328 25-640): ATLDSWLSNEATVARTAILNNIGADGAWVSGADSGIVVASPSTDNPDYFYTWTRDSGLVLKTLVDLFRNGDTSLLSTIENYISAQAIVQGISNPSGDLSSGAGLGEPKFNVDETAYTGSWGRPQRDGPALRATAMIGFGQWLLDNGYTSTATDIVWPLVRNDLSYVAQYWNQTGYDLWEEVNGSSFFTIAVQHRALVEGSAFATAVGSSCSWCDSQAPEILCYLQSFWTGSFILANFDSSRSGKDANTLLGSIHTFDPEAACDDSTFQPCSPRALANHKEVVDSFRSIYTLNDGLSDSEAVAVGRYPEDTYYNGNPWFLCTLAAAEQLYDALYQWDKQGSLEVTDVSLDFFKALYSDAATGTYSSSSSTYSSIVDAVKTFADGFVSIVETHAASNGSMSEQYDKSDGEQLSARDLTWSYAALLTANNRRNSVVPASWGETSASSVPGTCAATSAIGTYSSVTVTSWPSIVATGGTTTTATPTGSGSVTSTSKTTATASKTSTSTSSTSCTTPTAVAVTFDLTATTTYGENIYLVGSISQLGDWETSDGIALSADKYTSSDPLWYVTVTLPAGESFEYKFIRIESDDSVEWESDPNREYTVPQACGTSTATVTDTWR
Experimental: as §1

Naringinase = experiment: Glycosidase assay, naringinase (Penicillium decumbens); format: biochemical; conditions: 0.2 mM, negative value = stabilisation/promotion
Experimental: as §1

α-D-giucosidase = molecular target: T9, α-D-giucosidase (Saccharomyces cerevisiae, UniProt P53341); experiment: Glycosidase assay, α-D-glucosidase (Saccharomyces cerevisiae); format: biochemical; conditions: 0.2 mM, negative value = stabilisation/promotion, read-out: percentage inhibition
T9 construct: purchased Sigma
T9 sequence (P53341 whole entry): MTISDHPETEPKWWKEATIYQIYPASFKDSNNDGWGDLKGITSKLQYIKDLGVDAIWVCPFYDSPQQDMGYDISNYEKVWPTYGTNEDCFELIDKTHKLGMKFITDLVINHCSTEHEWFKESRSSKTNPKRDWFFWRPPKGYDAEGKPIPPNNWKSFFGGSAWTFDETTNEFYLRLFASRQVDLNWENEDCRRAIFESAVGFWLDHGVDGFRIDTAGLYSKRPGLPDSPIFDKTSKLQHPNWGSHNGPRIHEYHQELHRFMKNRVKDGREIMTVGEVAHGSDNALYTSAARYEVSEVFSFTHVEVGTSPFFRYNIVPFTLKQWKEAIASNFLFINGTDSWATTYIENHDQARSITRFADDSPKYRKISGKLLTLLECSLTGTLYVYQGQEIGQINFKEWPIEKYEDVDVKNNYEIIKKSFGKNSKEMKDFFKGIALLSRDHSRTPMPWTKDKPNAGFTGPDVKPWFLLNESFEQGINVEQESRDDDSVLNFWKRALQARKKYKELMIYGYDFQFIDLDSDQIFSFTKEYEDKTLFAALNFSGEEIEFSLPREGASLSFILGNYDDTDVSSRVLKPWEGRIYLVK
Experimental: as §1

α-D-galactosidase = molecular target: T10, α-D-galactosidase (Coffea arabica, UniProt Q42656); experiment: Glycosidase assay, α-D-galactosidase (green coffee bean); format: biochemical; conditions: 0.2 mM, Green coffee bean (Coffea sp.), negative value = stabilisation/promotion, read-out: percentage inhibition
T10 construct: purchased Sigma
T10 sequence (Q42656 16-378): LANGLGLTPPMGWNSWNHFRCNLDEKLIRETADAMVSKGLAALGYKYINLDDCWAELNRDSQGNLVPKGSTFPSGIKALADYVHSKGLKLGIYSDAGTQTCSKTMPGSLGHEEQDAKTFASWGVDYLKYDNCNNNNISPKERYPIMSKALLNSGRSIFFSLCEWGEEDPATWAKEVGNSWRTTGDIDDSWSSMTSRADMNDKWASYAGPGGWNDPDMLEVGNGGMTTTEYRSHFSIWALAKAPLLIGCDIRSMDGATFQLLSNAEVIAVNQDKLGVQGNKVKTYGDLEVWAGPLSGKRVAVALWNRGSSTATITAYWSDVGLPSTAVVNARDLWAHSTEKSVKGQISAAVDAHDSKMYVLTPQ
Experimental: as §1

Row | Structure (SMILES) | inhibition at 200 µM (α-D-mannosidase; 0.2 mM, α-D-mannosidase, Jack bean (Canavalia ensiformis), negative value = stabilisation/promotion) | percentage inhibition (β-D-mannosidase) | inhibition at 200 µM (β-glucuronidase [1]) | inhibition at 200 µM (α-D-glucosidase [2]) | inhibition at 200 µM (α-L-fucosidase) | percentage inhibition (β-D-glucosidase) | percentage inhibition [3] | inhibition at 400 µM (glycogen phosphorylase b) | percentage inhibition [4] | IC50 [4] | percentage inhibition (α-D-glucosidase [5]) | IC50 (β-glucuronidase [6]; bovine β-glucuronidase, read-out: IC50 against the bovine β-glucuronidase) | inhibition at 200 µM (β-glucuronidase [6]) | inhibition at 200 µM [7] | percentage inhibition (β-D-galactosidase) | inhibition at 200 µM (Amyloglucosidase) | percentage inhibition (Naringinase) | inhibition at 200 µM (α-D-giucosidase) | inhibition at 200 µM (α-D-galactosidase) | inhibition at 200 µM (α-D-mannosidase)
1 | N=C(N)NCCCC(NCC1(O)OCC(O)C(O)C1O)C(=O)O [N2-β-D-Fructopyranos-1-yl-Arginine, 5-carbamimidamido-2-{[(2,3,4,5-tetrahydroxytetrahydro-2H-pyran-2-yl)methyl]amino}pentanoic acid] | 35.2% | −8.1% | -9% | -6% | -9.3% | 7.6% | −0.8% | 14.2% | 88.5% | 7.7 µM | −1.7% | 101 µM | 85.2% | -15.3% | −3.9% | 15% | 4.1% | -1.4% | 3.4% | 
2 | O=C(O)CCCNCC1(O)OCC(O)C(O)C1O (stereo not shown) [1-Deoxy-1-(N-γ-aminobutyric acid)fructose] |  | −10.3% | -0.8% | -4.2% | -1.3% | −0.9% | −6.3% | 5.5% | 55.3% | 200 µM | 0.7% |  | -1.2% | -19.2% | 1.3% | -2.9% | 0.2% | -4.2% | -7.1% | -6.2%
